Measurements published in article PMC9616531 (Plant Biotechnology Journal, 2022).

Tested on: UGT72B23
Test: UDP-Glo glycosyltransferase assay
Format: biochemical, Camellia sinensis
Conditions: read-out: apparent Km; UDP-glucose co-substrate, pH 7.5, 40 °C

Q: With O=C(O[C@@H]1Cc2c(O)cc(O)cc2O[C@@H]1c1ccc(O)c(O)c1)c1cc(O)c(O)c(O)c1 [epicatechin gallate] as the molecule, how does the Km read?
A: 31.2 µM

Q: Which Km does the source give for O=C(O[C@@H]1Cc2c(O)cc(O)cc2O[C@@H]1c1cc(O)c(O)c(O)c1)c1cc(O)c(O)c(O)c1 [epigallocatechin gallate] here?
A: 27.9 µM
